“Also recorded” adds a separate entry of the source.
Tests used:
Assay type in all cases: biochemical
[1] = biological target: T1, HNE-DNA complexes of NETs (Homo sapiens, UniProt P08246); test: Activity of DNA-bound elastase on NETs, chromogenic substrate MeO-Suc-AAPV-pNA; details: NETs from PMA-stimulated neutrophils, MeO-Suc-AAPV-CMK 100 μM, α1-PI 10 μM, aprotinin 10 μM (FIG. 1B legend)
T1 construct: endogenous in cells
T1 sequence (P08246 30-247 limits assumed): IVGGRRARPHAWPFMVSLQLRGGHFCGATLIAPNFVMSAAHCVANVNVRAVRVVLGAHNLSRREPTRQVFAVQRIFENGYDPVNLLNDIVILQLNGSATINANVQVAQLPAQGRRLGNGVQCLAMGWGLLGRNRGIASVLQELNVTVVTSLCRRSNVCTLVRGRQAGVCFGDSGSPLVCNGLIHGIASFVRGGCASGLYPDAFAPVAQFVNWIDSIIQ
Protocol: FIGS. 1A-C represent Neutrophil Extracellular Traps (NETs) generated from neutrophils seeded onto a fibrin matrix: DNA and HNE activity of NETs are shown. Neutrophils isolated from human blood and seeded on wells of a 96-wells microtiter plate containing or not a fibrin matrix, were activated by 50 nM PMA in HBSS. After 4 hours incubation at 37° C. in a humidified 5% CO2 incubator, the plate was centrifuged at 3000 g for 5 min, the supernatant was collected and cells and NETs in the well stained with a 10 μg/ml solution of Hoechst 33342 a minor-groove DNA binder. Elastase activity bound to NETs was detected with the chromogenic substrate N-methoxysuccinyl-Ala-Ala-Pro-Val-p-nitroanilide. FIG. 1A represents fluorescence microscopy images (X20) of nuclei and extracellular DNA fibers stained with Hoechst. Scale bars: 20 μm. […] NETs: neutrophil extracellular traps generated in the absence of fibrin. […] C. […] Purified HNE was incubated (15 min) at different concentrations in buffer or plasma before activity measurements with 1.5 mM of the chromogenic substrate N-methoxysuccinyl-Ala-Ala-Pro-Val-p-nitroanilide.
NETs were identified by (1) DNA staining with a 10 μg/ml solution of Hoechst 33342 and (2) measuring the activity of DNA-bound elastase.
To detect elastase bound to NETs, the substrate MeO-Suc-AAPV-pNA (100 μl per well, 1.5 mM final concentration in HBSS) was incubated with NETs after two gentle washes with HBSS. DNA-bound HNE activity was detected in a multi-well plate counter at 37° C. by measuring the release of p-nitroaniline (pNA) at A405 nm.

[2] = biological target: T1, HNE-DNA complexes of NETs; test: Plasminogen fragmentation by NETs-bound elastase (SDS-PAGE, Western blot); details: plasminogen 1 μM; NETs pre-incubated with inhibitor
Protocol: FIGS. 2A-C represent NETs-associated elastase digests plasminogen into fragments. Samples were analyzed by SDS-PAGE and Western blot using a specific sheep antibody directed against human plasminogen. FIG. 2A-B. Plasminogen fragmentation by NETs HNE•DNA complexes after 30 to 240 min (A) and 2 to 10 hours (B) of incubation. C. Western blot of purified plasminogen (Pg), plasmin (Pn) (left panel) and HNE-DNA-derived plasminogen fragments (middle panel). Plasminogen fragments produced by PMA stimulated neutrophils (middle panel) were not observed (right panel) in the presence of the elastase-specific inhibitor (EI) N-Methoxysuccinyl-Ala-Ala-Pro-Val-chloromethyl ketone.
Fibrin-NETs matrices were achieved by activation with PMA of neutrophils seeded onto fibrin surfaces prepared as described above. The neutrophils were seeded onto the fibrin matrix at 200 000 cells per well and were stimulated with PMA after 1 h plating as indicated above. […] Initial velocities of the reaction were calculated using an ad hoc computer program. • 2. […] HNE activity in samples collected in HBSS was measured with the chromogenic substrate MeO-Suc-AAPV-pNA (100 μl per well, 1.5 mM final concentration in HBSS) as indicated above. […] Signal was detected using the ECL kit from Amersham (Arlington Heights, U.K.) and the Curix-60-AGFA for development. […]

[3] = biological target: T2, HNE-DNA complexes of fibrin-NETs lattice (Homo sapiens, UniProt P08246); test: Plasminogen activation by fibrin-bound tPA on fibrin-NETs matrices (plasmin formation)
T2 construct: endogenous in cells
T2 sequence (P08246 30-247 limits assumed): T1 sequence (P08246 30-247 limits assumed)
Protocol: FIGS. 3A-D represent the decrease in tPA-mediated plasmin formation by NETs formed onto fibrin. Neutrophils isolated from human blood were seeded onto fibrin in a 96-wells microtitre plate and activated by 50 nM PMA in HBSS. After binding of tPA to fibrin, plasminogen at varying concentrations was added to the interlaced NETs-fibrin structure. FIG. 3A-B. Plasmin formation from plasminogen (Pg) at 50 nM (A) and 500 nM (B) was monitored by measuring the released of pNA the plasmin-selective chromogenic substrate at 0.75 mM. Plasmin formation on fibrin. ● Plasmin formation on fibrin-NETs. ▪ Plasmin formation on fibrin-NETs treated with the elastase inhibitor MeO-Suc-AAPV-CMK. FIG. 3 C. After plasminogen activation the wells were carefully washed and the amount of fibrin-bound plasmin detected by adding 0.75 mM of the plasmin-selective chromogenic substrate. Grey bars: plasmin bound to the fibrin-NETs surface. […]
Fibrin-NETs matrices were achieved by activation with PMA of neutrophils seeded onto fibrin surfaces prepared as described above. […] Initial velocities of the reaction were calculated using an ad hoc computer program. • 2. […] HNE activity in samples collected in HBSS was measured with the chromogenic substrate MeO-Suc-AAPV-pNA (100 μl per well, 1.5 mM final concentration in HBSS) as indicated above. […]

| effect on proteolytic activity of HNE-DNA complexes of NETs ([1]; listed as aprotinin) | Substance | effect on proteolytic activity of HNE-DNA complexes of NETs [1] | effect on conversion of plasminogen into fragments by NETs [2] | decrease of plasmin formed and remaining bound to untreated fibrin-NETs lattices compared with lattices in the presence of inhibitor ([3]; FIG. 3C) | plasmin formation / fibrinolytic activity at the fibrin-NET lattice ([3]; fibrin-NET lattice pre-incubated with inhibitor, tPA bound to fibrin) |
| --- | --- | --- | --- | --- | --- |
| unable to modify | Aprotinin | without effect | unable to modify |  |  |
|  | N-(Methoxysuccinyl)-L-alanyl-L-alanyl-L-prolyl-L-valine chloromethylketone [MeO-Suc-AAPV-CMK] | completely blocked; also recorded: completely inhibited | abolished the conversion of plasminogen into fragments; also recorded: plasminogen fragments were absent | around 50% | restored to control values |

Source: patent publication US20240288446A1, “METHOD FOR DIAGNOSING FIBRINOLYTIC INSUFFICIENCY RELATED TO NEUTROPHIL EXTRACELLULAR TRAPS” (Hôpitaux Universitaires de Strasbourg, priority 2019, published 2024)
